Assay results as given in PubChem BioAssay (NCI).
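Where inhibition never reached the appropriate level, the endpoint shown equals the highest concentration tested. Otherwise, values were interpolated linearly from a five-concentration, 48-hour dose response in 96-well plates. Here, GI50 denotes the concentration required for 50% inhibition of growth. TGI: concentration producing complete growth inhibition.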

Columns and labels:
Assay in all cases: NCI tumour cell line growth inhibition, 48 h
U251 CNS = tested on: U251 CNS
MDA-MB-435 = tested on: MDA-MB-435
IGROV1 ovarian = tested on: IGROV1 ovarian
LOX IMVI melanoma = tested on: LOX IMVI melanoma
A549 NSCLC = tested on: A549 NSCLC
HOP-62 NSCLC = tested on: HOP-62 NSCLC
SW-620 colon = tested on: SW-620 colon
A498 renal = tested on: A498 renal
HT29 colon = tested on: HT29 colon
OVCAR-4 ovarian = tested on: OVCAR-4 ovarian
PC-3 prostate = tested on: PC-3 prostate
HL-60(TB) leukemia = tested on: HL-60(TB) leukemia
NCI-H460 lung = tested on: NCI-H460 lung
NCI/ADR-RES ovarian = tested on: NCI/ADR-RES ovarian
OVCAR-8 ovarian = tested on: OVCAR-8 ovarian
OVCAR-3 ovarian = tested on: OVCAR-3 ovarian
OVCAR-5 ovarian = tested on: OVCAR-5 ovarian
SF-268 CNS = tested on: SF-268 CNS
ACHN renal = tested on: ACHN renal
MCF7 breast = tested on: MCF7 breast
UACC-62 melanoma = tested on: UACC-62 melanoma
CCRF-CEM leukemia = tested on: CCRF-CEM leukemia
COLO 205 colon = tested on: COLO 205 colon
SK-MEL-5 melanoma = tested on: SK-MEL-5 melanoma
SK-MEL-28 melanoma = tested on: SK-MEL-28 melanoma
786-0 renal = tested on: 786-0 renal
HCC-2998 colon = tested on: HCC-2998 colon
MDA-MB-468 breast = tested on: MDA-MB-468 breast
RXF 393 renal = tested on: RXF 393 renal
SN12C renal = tested on: SN12C renal
UACC-257 melanoma = tested on: UACC-257 melanoma
RPMI-8226 leukemia = tested on: RPMI-8226 leukemia
SNB-19 CNS = tested on: SNB-19 CNS
MOLT-4 leukemia = tested on: MOLT-4 leukemia
SK-OV-3 ovarian = tested on: SK-OV-3 ovarian
T-47D breast = tested on: T-47D breast
KM12 colon = tested on: KM12 colon
DU-145 prostate = tested on: DU-145 prostate
M14 melanoma = tested on: M14 melanoma
TK-10 renal = tested on: TK-10 renal
NCI-H226 lung = tested on: NCI-H226 lung
SR leukemia = tested on: SR leukemia
EKVX NSCLC = tested on: EKVX NSCLC
NCI-H23 lung = tested on: NCI-H23 lung
BT-549 breast = tested on: BT-549 breast
NCI-H522 lung = tested on: NCI-H522 lung
CAKI-1 renal = tested on: CAKI-1 renal
K-562 leukemia = tested on: K-562 leukemia
MALME-3M melanoma = tested on: MALME-3M melanoma
HCT-116 colon = tested on: HCT-116 colon
SF-295 CNS = tested on: SF-295 CNS
SF-539 CNS = tested on: SF-539 CNS
HCT-15 colon = tested on: HCT-15 colon
HS 578T breast = tested on: HS 578T breast
HOP-92 NSCLC = tested on: HOP-92 NSCLC

With `N#CC1=C(c2cccs2)Nc2c(c(-c3ccccc3)nn2-c2ccccc2)C12C(=O)Nc1ccc(Br)cc12` (stereo not given) as the molecule, how does the GI50 (U251 CNS) read?
The GI50 was 5.64 µM.

And the TGI (U251 CNS)?
Its TGI is 18.4 µM.

What about the GI50 (MDA-MB-435) of the same molecule?
Its GI50 is 17 µM.

What about the TGI (MDA-MB-435) of the same molecule?
The TGI was 33.7 µM.

What about the GI50 (IGROV1 ovarian) of the same molecule?
The GI50 was 14.2 µM.

What about the TGI (IGROV1 ovarian) of the same molecule?
The TGI was 29.8 µM.

What about the GI50 (LOX IMVI melanoma) of the same molecule?
Its GI50 is 12.4 µM.

What about the TGI (LOX IMVI melanoma) of the same molecule?
The TGI was 24.9 µM.

And the GI50 (A549 NSCLC)?
The GI50 was 10.2 µM.

And the TGI (A549 NSCLC)?
The TGI was 23 µM.

And the GI50 (HOP-62 NSCLC)?
The GI50 was 15.4 µM.

What about the TGI (HOP-62 NSCLC) of the same molecule?
Its TGI is 29.6 µM.

What about the GI50 (SW-620 colon) of the same molecule?
The GI50 was 11.1 µM.

What about the TGI (SW-620 colon) of the same molecule?
The TGI was 26.5 µM.

And the GI50 (A498 renal)?
Its GI50 is 16.3 µM.

And the TGI (A498 renal)?
Its TGI is 30.7 µM.

What about the GI50 (HT29 colon) of the same molecule?
Its GI50 is 15.2 µM.

And the TGI (HT29 colon)?
Its TGI is 29.1 µM.

And the GI50 (OVCAR-4 ovarian)?
The GI50 was 14.2 µM.

What about the TGI (OVCAR-4 ovarian) of the same molecule?
The TGI was 34.1 µM.

What about the GI50 (PC-3 prostate) of the same molecule?
The GI50 was 6.37 µM.

And the TGI (PC-3 prostate)?
Its TGI is 22 µM.

What about the GI50 (HL-60(TB) leukemia) of the same molecule?
The GI50 was 8.84 µM.

And the TGI (HL-60(TB) leukemia)?
The TGI was 26.8 µM.

What about the GI50 (NCI-H460 lung) of the same molecule?
Its GI50 is 11.2 µM.

And the TGI (NCI-H460 lung)?
The TGI was 24.6 µM.

What about the GI50 (NCI/ADR-RES ovarian) of the same molecule?
The GI50 was 13.3 µM.

And the TGI (NCI/ADR-RES ovarian)?
The TGI was 29.1 µM.

And the GI50 (OVCAR-8 ovarian)?
The GI50 was 15.6 µM.

What about the TGI (OVCAR-8 ovarian) of the same molecule?
The TGI was 31 µM.

What about the GI50 (OVCAR-3 ovarian) of the same molecule?
The GI50 was 15 µM.

And the TGI (OVCAR-3 ovarian)?
The TGI was 29.4 µM.

What about the GI50 (OVCAR-5 ovarian) of the same molecule?
Its GI50 is 16.5 µM.

What about the TGI (OVCAR-5 ovarian) of the same molecule?
The TGI was 33.1 µM.

And the GI50 (SF-268 CNS)?
Its GI50 is 8.58 µM.

And the TGI (SF-268 CNS)?
The TGI was 37.8 µM.

And the GI50 (ACHN renal)?
Its GI50 is 11.9 µM.

And the TGI (ACHN renal)?
The TGI was 24.8 µM.

What about the GI50 (MCF7 breast) of the same molecule?
The GI50 was 13.6 µM.

And the TGI (MCF7 breast)?
Its TGI is 28.3 µM.

What about the GI50 (UACC-62 melanoma) of the same molecule?
Its GI50 is 11.4 µM.

What about the TGI (UACC-62 melanoma) of the same molecule?
Its TGI is 23.6 µM.

And the GI50 (CCRF-CEM leukemia)?
Its GI50 is 7.51 µM.

What about the TGI (CCRF-CEM leukemia) of the same molecule?
The TGI was 26.7 µM.

And the GI50 (COLO 205 colon)?
Its GI50 is 16 µM.

And the TGI (COLO 205 colon)?
The TGI was 29.9 µM.

What about the GI50 (SK-MEL-5 melanoma) of the same molecule?
The GI50 was 16.6 µM.

And the TGI (SK-MEL-5 melanoma)?
The TGI was 30.5 µM.

What about the GI50 (SK-MEL-28 melanoma) of the same molecule?
The GI50 was 15.1 µM.

And the TGI (SK-MEL-28 melanoma)?
Its TGI is 28.4 µM.

And the GI50 (786-0 renal)?
The GI50 was 15.7 µM.

What about the TGI (786-0 renal) of the same molecule?
Its TGI is 30.5 µM.

And the GI50 (HCC-2998 colon)?
Its GI50 is 13.9 µM.

What about the TGI (HCC-2998 colon) of the same molecule?
The TGI was 27 µM.

And the GI50 (MDA-MB-468 breast)?
The GI50 was 12.9 µM.

What about the TGI (MDA-MB-468 breast) of the same molecule?
The TGI was 27 µM.

What about the GI50 (RXF 393 renal) of the same molecule?
The GI50 was 10.2 µM.

And the TGI (RXF 393 renal)?
Its TGI is 22.2 µM.

What about the GI50 (SN12C renal) of the same molecule?
Its GI50 is 13.7 µM.

What about the TGI (SN12C renal) of the same molecule?
Its TGI is 27.9 µM.

And the GI50 (UACC-257 melanoma)?
Its GI50 is 15.6 µM.

And the TGI (UACC-257 melanoma)?
The TGI was 30.9 µM.

And the GI50 (RPMI-8226 leukemia)?
The GI50 was 10.2 µM.

What about the TGI (RPMI-8226 leukemia) of the same molecule?
Its TGI is 32.9 µM.

And the GI50 (SNB-19 CNS)?
Its GI50 is 5.23 µM.

And the TGI (SNB-19 CNS)?
The TGI was 27.9 µM.

And the GI50 (MOLT-4 leukemia)?
The GI50 was 7.92 µM.

What about the TGI (MOLT-4 leukemia) of the same molecule?
Its TGI is 24.1 µM.

And the GI50 (SK-OV-3 ovarian)?
Its GI50 is 14.2 µM.

What about the TGI (SK-OV-3 ovarian) of the same molecule?
The TGI was 28.6 µM.

What about the GI50 (T-47D breast) of the same molecule?
The GI50 was 17.7 µM.

What about the TGI (T-47D breast) of the same molecule?
Its TGI is 45 µM.

What about the GI50 (KM12 colon) of the same molecule?
Its GI50 is 7.67 µM.

And the TGI (KM12 colon)?
Its TGI is 20.5 µM.

What about the GI50 (DU-145 prostate) of the same molecule?
The GI50 was 20.7 µM.

And the TGI (DU-145 prostate)?
Its TGI is 46.6 µM.

And the GI50 (M14 melanoma)?
Its GI50 is 14.4 µM.

And the TGI (M14 melanoma)?
The TGI was 27.7 µM.

And the GI50 (TK-10 renal)?
Its GI50 is 12.9 µM.

And the TGI (TK-10 renal)?
The TGI was 36.7 µM.

And the GI50 (NCI-H226 lung)?
Its GI50 is 15.4 µM.

What about the TGI (NCI-H226 lung) of the same molecule?
Its TGI is 31.2 µM.

What about the GI50 (SR leukemia) of the same molecule?
The GI50 was 7.93 µM.

And the TGI (SR leukemia)?
The TGI was 27.1 µM.

What about the GI50 (EKVX NSCLC) of the same molecule?
The GI50 was 11.1 µM.

And the TGI (EKVX NSCLC)?
Its TGI is 27.4 µM.

What about the GI50 (NCI-H23 lung) of the same molecule?
Its GI50 is 9.98 µM.

And the TGI (NCI-H23 lung)?
The TGI was 21.8 µM.

And the GI50 (BT-549 breast)?
Its GI50 is 5.22 µM.

And the TGI (BT-549 breast)?
The TGI was 18.1 µM.

And the GI50 (NCI-H522 lung)?
Its GI50 is 4.52 µM.

And the TGI (NCI-H522 lung)?
The TGI was 17.1 µM.

What about the GI50 (CAKI-1 renal) of the same molecule?
Its GI50 is 16.2 µM.

What about the TGI (CAKI-1 renal) of the same molecule?
The TGI was 37.5 µM.

And the GI50 (K-562 leukemia)?
Its GI50 is 7.53 µM.

What about the TGI (K-562 leukemia) of the same molecule?
The TGI was 23.6 µM.

What about the GI50 (MALME-3M melanoma) of the same molecule?
The GI50 was 14.5 µM.

What about the TGI (MALME-3M melanoma) of the same molecule?
Its TGI is 27.8 µM.

And the GI50 (HCT-116 colon)?
Its GI50 is 12.1 µM.

What about the TGI (HCT-116 colon) of the same molecule?
Its TGI is 24.7 µM.

And the GI50 (SF-295 CNS)?
The GI50 was 12.5 µM.

And the TGI (SF-295 CNS)?
The TGI was 25.6 µM.

What about the GI50 (SF-539 CNS) of the same molecule?
Its GI50 is 15.2 µM.

What about the TGI (SF-539 CNS) of the same molecule?
The TGI was 28.5 µM.

What about the GI50 (HCT-15 colon) of the same molecule?
The GI50 was 5.34 µM.

What about the TGI (HCT-15 colon) of the same molecule?
The TGI was 18.2 µM.

What about the GI50 (HS 578T breast) of the same molecule?
Its GI50 is 12.7 µM.

And the TGI (HS 578T breast)?
Its TGI is 40.1 µM.

And the GI50 (HOP-92 NSCLC)?
Its GI50 is 3.4 µM.

And the TGI (HOP-92 NSCLC)?
Its TGI is 15.4 µM.
